This passage reports Activity and Km results from ChEMBL document CHEMBL2073834, “Transport of temocaprilat into rat hepatocytes: role of organic anion transporting polypeptide” (J Pharmacol Exp Ther, 1998).

Holding throughout (format): functional, cell-based
In data set [1] the target is T1, Solute carrier organic anion transporter family member 1A1 (Rattus norvegicus, UniProt P46720).
T1 sequence (P46720 whole entry): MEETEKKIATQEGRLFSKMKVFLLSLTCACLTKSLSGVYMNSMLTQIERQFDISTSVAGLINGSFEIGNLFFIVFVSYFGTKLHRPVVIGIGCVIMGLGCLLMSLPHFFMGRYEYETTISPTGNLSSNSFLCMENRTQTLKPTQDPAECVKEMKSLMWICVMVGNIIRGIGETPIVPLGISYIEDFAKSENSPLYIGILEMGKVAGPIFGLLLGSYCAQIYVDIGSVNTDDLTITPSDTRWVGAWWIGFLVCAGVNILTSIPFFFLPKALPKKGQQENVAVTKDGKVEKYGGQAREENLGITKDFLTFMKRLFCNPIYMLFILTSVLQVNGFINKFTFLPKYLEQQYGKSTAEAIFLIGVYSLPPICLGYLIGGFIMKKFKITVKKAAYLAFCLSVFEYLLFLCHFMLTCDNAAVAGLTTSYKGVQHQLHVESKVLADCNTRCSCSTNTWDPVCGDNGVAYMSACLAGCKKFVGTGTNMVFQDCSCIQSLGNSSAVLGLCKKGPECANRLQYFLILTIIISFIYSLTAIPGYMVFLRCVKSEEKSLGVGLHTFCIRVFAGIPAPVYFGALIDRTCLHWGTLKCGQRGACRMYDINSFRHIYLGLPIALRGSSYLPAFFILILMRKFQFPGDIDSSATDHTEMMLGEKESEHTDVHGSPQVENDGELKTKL
Description: TP_TRANSPORTER: inhibition of Temocaprilat uptake (Temocaprilat: 0.1 uM, DBSB: 100 uM) in Oatp1-expressing COS-7 cells. Conditions: monkey, cos-7, 100 µM.

Data set [2] has as its target T1, Solute carrier organic anion transporter family member 1A1. Briefly: TP_TRANSPORTER: inhibition of Temocaprilat uptake (Temocaprilat: 0.1 uM, E217betaG: 10 uM) in Oatp1-expressing COS-7 cells. Conditions: monkey, cos-7, 10 µM.
Substrate in data set [3]: O=C(O)CN1C[C@@H](c2cccs2)SC[C@H](N[C@@H](CCc2ccccc2)C(=O)O)C1=O
Briefly: (§1) TP_TRANSPORTER: uptake in Oatp1-expressing COS-7 cells.

Substrate in data set [4]: C[C@]12CC[C@@H]3c4ccc(O)cc4CC[C@H]3[C@@H]1CC[C@@H]2O[C@@H]1O[C@H](C(=O)O)[C@@H](O)[C@H](O)[C@H]1O
The description is as §1.

Broadly, the Km is the substrate concentration at which the rate is half of its maximum.

For `O=C1OC(c2ccc(OS(=O)(=O)O)cc2)(c2ccc(OS(=O)(=O)O)cc2)c2c(Br)ccc(Br)c21` [DIBROMOSULFOPHTHALEIN], the Activity result in data set [1] is “inhibitor [(at a rough estimate) 5 % of control]”. With `C[C@]12CC[C@@H]3c4ccc(O)cc4CC[C@H]3[C@@H]1CC[C@@H]2O[C@@H]1O[C@H](C(=O)O)[C@@H](O)[C@H](O)[C@H]1O` [ESTRADIOL 17B GLUCURONIDE], the Activity entry in data set [2] was “inhibitor [(at a rough estimate) 55 % of control]”.

B1: Solute carrier organic anion transporter family member 1A1 (Rattus norvegicus) (protein)
chain: T1 sequence (P46720 whole entry)
Consider B1, for which the Km amounted to 46.7 µM in data set [3] and 11 µM in data set [4].
